Results on one substance are retold here after patent US20260275281A1, “COMPOSITIONS AND METHODS FOR DIFFERENTIATING RPE CELLS” (STEMCELL TECHNOLOGIES CANADA INC., priority 2023, published 2026).

The assay relates to H9-derived RPE cells. The note with it: increasing concentrations 10 μM, 25 µM and 50 μM in maturation medium, versus unsupplemented medium.

Method: RPE pigmentation levels of cells at different stages of differentiation, but usually day 49 mature (d) RPE, could be analysed by a melanin content assay. […] A total of 4×10^5 RPE were added per well of a 96 well u bottom plate and centrifuged at 500×g for 3 minutes. Once the supernatant was removed, cells were resuspended in 100 μL of D-PBS and transferred to a 96 well tissue culture plate. RPE were centrifuged at 300×g for 3 minutes and absorbance was measured at 490 nm. Melanin content was calculated relative to the synthetic standard.

With ferric ammonium citrate, the “melanogenesis (brightfield microscopy and melanin content assay)” value is recorded as “increasing levels of melanogenesis”.
